# According to US7632863B2, “3,4,5,4′-tetramethoxyl-α,β-diphenylethane-3′-O-sodium sulphate and its use” (The Jian Cell Biomedical Research Co., Ltd., priority 2007, dated 2009):
# Tests used:
# [1] = test system: S180 sarcoma; details: Dosage 30 mg/kg, i.v., S180 sarcoma-bearing mice
# Excerpt: (1) Sample: 3,4,5,4′-tetramethoxyl-α,β-diphenylethane-3′-O-sodium sulphate (AS) provided by Zhejiang Cell Biomedical Research Co., Ltd., and prepared by the process in Example One. Dissolved by physiological saline for the concentration needed.
# (2) Cisplatin: Cisplatin for injection (DDP), Qilu Pharmaceutical Co., Ltd. Batch No.: 5120282DC. Dissolved by physiological saline for preparation.
# (3) Control product: Cyclophosphamide for injection (CTX), Jiangsu Hengrui Pharmaceutical Inc. Co. Batch No.: 04123021 Dissolved by physiological saline for preparation.
# (1) KM mouse bearing S180 sarcoma.
# (2) 70 KM mice, female, weighting 18-22 g, provided by Zhejing College of Traditional Chinese Medicine.
# (1) Drawing ascites under aseptic condition from mouse bearing S180 sarcoma, diluting with physiologic saline 1:3, giving subcutaneous inoculation in the armpit of the right forelimb of the KM mice with 0.2 ml each; dividing the mice into 7 groups randomly the next day, 10 in each group.
# (2) Administering drug to the mice by weight the third day of inoculation, intravenous administration 0.5 ml/20 g […], by weight, and putting them to death on the 11th day after inoculation, weighing the tumor and calculating the rate of tumor inhibition.
# (3) dosage (mg/kg/d) and means of administration:
# AS: 50 mg/kg, tail vein injection
# AS: 100 mg/kg, tail vein injection
# AS: 200 mg/kg, tail vein injection
# DDP: 1 mg/kg, tail vein injection
# AS+DDP: 50 mg/kg+1 mg/kg, tail vein injection
# CTX: 30 mg/kg, tail vein injection
# Setting up another blank control group, tail vein injection of 0.9% NaCl 0.5 ml.
# (§1) (4) Judging the result with the following formula: […]
# [2] = test system: Lewis lung cancer; assay: Joint administration of AS and DDP, murine model of Lewis lung cancer (Example Five); assay type: in vivo, C57BL/6J mice; details: Dosage 1 mg/kg, i.v., mice bearing Lewis lung cancer
# Excerpt: (1) Sample: 3,4,5,4′-tetramethoxyl-α,β-diphenylethane-3′-O-sodium sulphate (AS), raw material medicine, provided by Zhejiang Cell Biomedical Research Co., Ltd., and prepared by the process in Example One. Batch No.: 061025. Dissolved by physiological saline for the concentration needed.
# (2) Cisplatin: Cisplatin for injection (DDP), Qilu Pharmaceutical Co., Ltd. Batch No.: 5120282DC; Dissolved by physiological saline for preparation
# (3) Control product: Cyclophosphamide for injection (CTX), Jiangsu Hengrui Pharmaceutical Inc. Co. Batch No.: 04123021. Dissolved by physiological saline for preparation.
# (1) C57BL/6J mouse bearing Lewis lung cancer
# (2) 70 C57BL/6J mice, female, weighing 17-21 g. Provided by the animal house of Zhejiang Cell Biomedical Research Co., Ltd.
# (1) Taking tumor from C57BL/6J mouse under aseptic condition, grinding and diluting it by physiological saline 1:3 (weight:volume), and giving hypodermic inoculation 0.2 ml per mouse in the armpit of the right forelimb of each mouse. dividing the mice into 7 groups randomly the next day, 10 in each group.
# (2) After inoculation, waiting till the tumor has grown to the accessible size, administering medicine according to body weight, 0.5 ml/20 g intravenous, for 11 days, putting the mice to death on the 19th after inoculation, taking out and weighing the tumor, and calculating the tumor inhibiting rate.
# as §1
compound,measurement,setting,value
"N.N.[Cl][Pt][Cl] [DDP, Cisplatin, reference compound]",Tumor inhibiting rate %,[1],70%
same,Tumor weight,[1],0.88 ± 0.50 g
same,Tumor inhibiting rate %,[2],46.4%
same,Tumor weight,[2],2.52 ± 0.80 g
